Like-named read-outs stand apart in the source and are kept apart here.
Legend:
Piricularia oryzae = assay type: in vivo; settings: 5 days
Botrytis cinerea [1] = test: Inhibition of fungus in a nutrient solution: Botrytis cinerea; assay type: cell-based; settings: 6 days at 21-23° C.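 Further: 0 means no fungus growth and higher grades mean more surface covered.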
Pythium ultimum = test: Threshold concentration test for use of the compounds against Pythium ultimum (infested soil, garden peas); assay type: in vivo; design: key to root evaluation (1-4): 4: white roots without fungous necrosis; 3: white roots, minor fungous necrosis; 2: brown roots, already more pronounced fungous necrosis; 1: heavy fungous necrosis, roots rotted; settings: for root evaluation (1-4): 3 weeks; for number of sound peas: 20 grains per dish, 3 weeks at 20-24° C.
Outline: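 Pulverulent agents at 20% concentration mixed evenly into soil heavily infested with Pythium ultimum, then garden peas ('Wunder von Kelvedon', 20 per dish) sown at once. After three weeks at 20–24 °C in a hothouse, sound peas counted and roots scored on a 1–4 scale.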

Fusarium avenaceum [2] = test: Inhibition of fungus in a nutrient solution: Fusarium avenaceum; assay type: cell-based; settings: 6 days at 21-23° C.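 Further: 0 means no fungus growth and higher grades mean more surface covered.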
Outline: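 Grape juice/water (1:1) nutrient solution mixed with powdered test agent, then inoculated with conidia. Surface fungal growth scored on a 0–5 scale after 6 days at 21–23 °C.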

Ustilago nuda nuda = test: Treatment of barley seeds in open field tests against Ustilago nuda nuda; assay type: in vivo; settings: winter barley; 100 g/100 kg seeds; eight months
Description: (§1) Treatment of wheat and barley seeds in open field tests against Ustilago nuda
(§2) Winter wheat seeds which had been infested with the smut cause Ustilago nuda tritici and winter barley seeds infested with Ustilago nuda nuda were treated with the agents listed in the table below and were seeded at seeding time in open fields. As a control untreated seeds were likewise included in the seed. After eight months the affected heads were counted for each test group and their proportion was calculated in order to find the fungicidal activity by the following formula: [formula]
(§3) The active compounds were employed in the form of 20% concentration powder compositions.

Ustilago nuda tritici = test: Treatment of wheat seeds in open field tests against Ustilago nuda tritici; assay type: in vivo; settings: winter wheat; 100 g/100 kg seeds; eight months
Description: as §1, §2, §3

[3] = system: Helminthosporium gramineum; test: Seed treatment in open field tests for infestation by Helminthosporium gramineum (barley); assay type: in vivo
Description: Seed treatment in open field tests for infestation by Helminthosporium gramineum
The active agents were used in the form of pulverulent compositions. After about 8 months in case of winter barley and after about 3 months in case of summer barley the infested plants were counted and the activity was calculated by the formula [formula]

Alternaria solani = test: Inhibition of fungus in a nutrient solution: Alternaria solani; assay type: cell-based; settings: 6 days at 21-23° C.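 Further: 0 means no fungus growth and higher grades mean more surface covered.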
Fusarium avenaceum [4] = test: Threshold concentration test in case of Fusarium avenaceum (infested soil, garden peas); assay type: in vivo; settings: for number of sound peas: 20 grains per dish, 18 days at 20-24° C.; for root evaluation (1-4): 18 days
Outline: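 Soil heavily infested with Fusarium avenaceum was mixed uniformly with a 20% powder formulation of active agent, then sown immediately with 20 garden pea seeds ('Wunder von Kelvedon') per dish. After 18 days in a greenhouse at 20° to 24° C., sound plants were counted and roots scored on a 1–4 scale.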

Venturia inaequalis = test: Prophylactic leaf treatment of apples in open field test against Venturia inaequalis; assay type: in vivo; settings: 3 weeks
Tilletia caries [5] = test: Seed treatment in open field tests regarding infestation by Tilletia caries (oats); assay type: in vivo
Penicillium digitatum = test: Inhibition of fungus in a nutrient solution: Penicillium digitatum; assay type: cell-based; settings: 6 days at 21-23° C.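 Further: 0 means no fungus growth and higher grades mean more surface covered.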
Ustilago avenae = test: Oat seed treatment for Ustilago avenae; assay type: in vivo; settings: 10 weeks
[6] = system: root gall nematodes (Meloidogyne sp.); test: Threshold concentration test with root gall nematodes (cucumber, infested soil); assay type: in vivo; settings: 28 days at 24-27° C.
Description: Threshold concentration test with root gall nematodes (Meloidogyne sp.)
20% concentration pulverulent active agents as listed in the table below were mixed in a uniform manner with a soil which had been heavily infested by root gall nematodes. After waiting for 3 days the treated soil was placed in two clay dishes of a capacity of 0.5 liter. 10 grain of cucumber seeds of the type "Guntruud" were placed into each dish.
Thereafter, the contents of the dishes were permitted to develop at a temperature of 24° to 27° C. for a time of 28 days in a hothouse. The cucumber roots were then washed out and were examined in a water bath regarding nematode infestation. The reduction of the infestation by the active agents as compared with untreated control material was determined in percentages.
The nematocidal activity was calculated by the formula
A=the infestation in the untreated control material and
B=the infestation after treatment.

Fusarium nivale = test: Treatment of rye seeds against Fusarium nivale; assay type: in vivo; settings: 100 g/100 kg; about 4 weeks
Description: Treatment of rye seeds against Fusarium nivale
Rye seeds with a natural infestation by Fusarium nivale were seeded in earth filled pots and left for germination at about 6° C. Part of the seeds was treated before seeding with the active agents as appears from the subsequent table and part was untreated. After emergence of the seedlings the plants were illuminated with artificial light for 12 hours each day. After about 4 weeks the degree of infestation was determined in percentages. The fungicidal activity was calculated on the basis of the following formula: [formula]
The active agents were used in the form of 20% concentration compositions.

Septoria nodorum = test: Treatment of oat seeds against Septoria nodorum; assay type: in vivo; settings: 4 weeks
Description: Effects of the treatment of oat seeds against Septoria nodorum
They were then seeded on a moist substrate for germination. As a control untreated seeds were likewise seeded. At about 6° C. the seed was incubated in an air-conditioned chamber until after 4 weeks the proportion of diseased seeds could be determined and the activity of the fungicidal compounds was calculated on the basis of the following formula: [formula]
The active agents were applied in the form of 20% concentration pulverulent compositions.

Botrytis cinerea [7] = test: Prophylactic leaf treatment of tomato plants against Botrytis cinerea; assay type: in vivo; settings: concentration of 0.025 of the active agent (unit not given)
Tilletia caries [8] = test: Treatment of oat seeds infested with Tilletia caries (spore germination); assay type: in vivo
[9] = concentration of active agent 0.1 (percentages)
[10] = 20 g active agent per 100 kg, about 5 weeks
[11] = 50 g active agent per 100 kg, about 5 weeks
[12] = summer barley, 25 g active agent/100 kg barley, about 3 months
[13] = summer barley, 50 g active agent/100 kg barley, about 3 months
[14] = summer barley, 100 g active agent/100 kg barley, about 3 months
[15] = winter barley, 75 g active agent/100 kg barley, about 8 months
[16] = winter barley, 100 g active agent/100 kg barley, about 8 months
[17] = concentration of active agent 0.005 (in gram)
[18] = concentration of active agent 0.025 (in gram)
[19] = winter oats, 100 g active agent/100 kg, about 9 months
[20] = winter barley, 25 g active agent/100 kg barley, about 8 months
[21] = winter barley, 50 g active agent/100 kg barley, about 8 months

Compound	% activity (Piricularia oryzae; [9])	fungus development on the surface of the nutrient solution (0-5) (Botrytis cinerea [1]; 0.002%)	fungus development on the surface of the nutrient solution (0-5) (Botrytis cinerea [1]; 0.004%)	root evaluation (1-4) (Pythium ultimum; 20 mg/l soil)	number of sound peas (Pythium ultimum; 20 mg/l soil)	root evaluation (1-4) (Pythium ultimum; 40 mg/l soil)	number of sound peas (Pythium ultimum; 40 mg/l soil)	root evaluation (1-4) (Pythium ultimum; 80 mg/l soil)	number of sound peas (Pythium ultimum; 80 mg/l soil)	fungus development on the surface of the nutrient solution (0-5) (Fusarium avenaceum [2]; 0.002%)	fungus development on the surface of the nutrient solution (0-5) (Fusarium avenaceum [2]; 0.004%)	% activity (Helminthosporium gram; [10])	% activity (Helminthosporium gram; [11])	% activity [3, 12]	% activity [3, 13]	% activity [3, 14]	% activity [3, 15]	% activity [3, 16]	fungus development on the surface of the nutrient solution (0-5) (Alternaria solani; 0.002%)	% activity (Ustilago avenae; 100 g active agent/100 kg)	also measured
CC(C)S(=O)(=O)c1nnc(C#N)s1 [5-isopropylsulfonyl-1,3,4-thiadiazole-2-carbonitrile]	94%	1	0	2	18	4	20	4	19	0	0	86%	97%	100%	99.8%	100%	99%	100%	0	97%	% activity (Ustilago nuda nuda): 93%; % activity (Ustilago nuda tritici): 70%; fungus development on the surface of the nutrient solution (0-5) (Alternaria solani; 0.004%): 0; number of sound peas (Fusarium avenaceum [4]; 25 mg/l soil): 20; root evaluation (1-4) (Fusarium avenaceum [4]; 25 mg/l soil): 4; number of sound peas (Fusarium avenaceum [4]; 50 mg/l soil): 20; root evaluation (1-4) (Fusarium avenaceum [4]; 50 mg/l soil): 4; number of sound peas (Fusarium avenaceum [4]; 100 mg/l soil): 19; root evaluation (1-4) (Fusarium avenaceum [4]; 100 mg/l soil): 4; % activity (Venturia inaequalis; [17]): 97%; % activity (Venturia inaequalis; [18]): 100%; % activity (Tilletia caries [5]; [19]): 100%; fungus development on the surface of the nutrient solution (0-5) (Penicillium digitatum; 0.002%): 0; fungus development on the surface of the nutrient solution (0-5) (Penicillium digitatum; 0.004%): 0
CS(=O)(=O)c1nnc(C#N)s1 [5-methylsulfonyl-1,3,4-thiadiazole-2-carbonitrile]		1	0	3	17	4	16	4	20	0	0								0		Percentage reduction of infestation ([6]; 50 mg per liter soil): 71%; Percentage reduction of infestation ([6]; 100 mg per liter soil): 88%; Percentage reduction of infestation ([6]; 200 mg per liter soil): 96%; fungus development on the surface of the nutrient solution (0-5) (Alternaria solani; 0.004%): 0; number of sound peas (Fusarium avenaceum [4]; 25 mg/l soil): 18; root evaluation (1-4) (Fusarium avenaceum [4]; 25 mg/l soil): 4; number of sound peas (Fusarium avenaceum [4]; 50 mg/l soil): 17; root evaluation (1-4) (Fusarium avenaceum [4]; 50 mg/l soil): 4; number of sound peas (Fusarium avenaceum [4]; 100 mg/l soil): 19; root evaluation (1-4) (Fusarium avenaceum [4]; 100 mg/l soil): 4; fungus development on the surface of the nutrient solution (0-5) (Penicillium digitatum; 0.002%): 1; fungus development on the surface of the nutrient solution (0-5) (Penicillium digitatum; 0.004%): 0
CS(=O)(=O)c1nnc(C(N)=O)s1 [5-methylsulfonyl-1,3,4-thiadiazole-2-carboxamide]	96%			4	16	4	18	4	20			100%	100%	95%	100%	100%	100%	100%		84%	% activity (Helminthosporium gram; 10 g active agent per 100 kg, about 5 weeks): 95%; % activity [3, 20]: 90%; % activity [3, 21]: 96%; % activity (Fusarium nivale): 99%; % activity (Septoria nodorum; 50 g active agent/100 kg seeds): 91%; % activity (Tilletia caries [5]; winter oats, 25 g active agent/100 kg, about 9 months): 100%; % activity (Tilletia caries [5]; winter oats, 50 g active agent/100 kg, about 9 months): 100%; % activity (Tilletia caries [5]; [19]): 100%; % activity (Ustilago avenae; 150 g active agent/100 kg): 90%
CNC(=O)c1nnc(S(C)(=O)=O)s1 [5-methylsulfonyl-1,3,4-thiadiazole-2-carboxylic acid methylamide]	91%			4	20	4	18	4	18			99%	100%	93%	100%	100%	100%			90%	% activity (Piricularia oryzae; concentration of active agent 0.02 (percentages)): 65%; % activity (Botrytis cinerea [7]): 78%; % activity [3, 20]: 99.5%; % activity [3, 21]: 99.5%; % activity (Fusarium nivale): 100%; % activity (Venturia inaequalis; [17]): 90%; % activity (Venturia inaequalis; [18]): 92%; % activity (Septoria nodorum; 50 g active agent/100 kg seeds): 93%; % activity (Tilletia caries [5]; summer oats, 50 g active agent/100 kg, about 4 months): 100%
Methoxyethyl-Hg--silicate [reference compound]																					% activity (Tilletia caries [8]; 1.3 g active agent per 100 kg): 90%; % activity (Tilletia caries [8]; 2.6 g active agent per 100 kg): 100%; % activity (Helminthosporium gram; 0.2 g active agent per 100 kg): 63%; % activity (Helminthosporium gram; 0.5 g active agent per 100 kg): 91%; % activity (Helminthosporium gram; 1.0 g active agent per 100 kg): 98%; % activity ([3]; summer barley, 5.2 g active agent/100 kg barley): 99.8%; % activity ([3]; summer barley, 10.4 g active agent/100 kg barley): 100%; % activity ([3]; winter barley, 2.6 g active agent/100 kg barley): 99.4%; % activity ([3]; winter barley, 5.2 g active agent/100 kg barley): 100%; % activity (Septoria nodorum; 1.3 g active agent/100 kg seeds): 86%; % activity (Tilletia caries [5]; summer oats, 2.6 g active agent/100 kg, about 4 months): 99%; % activity (Tilletia caries [5]; winter oats, 5.3 g active agent/100 kg, about 9 months): 99%; % activity (Ustilago avenae; 16 g active agent/100 kg): 66%
